test system: Triticum aestivum (TRZAS); assay: Post-emergence crop plant compatibility, greenhouse pot trial; format: in vivo; settings: 20 g/ha, post-emergence, in comparison to untreated controls
Procedure: (§1) Seeds of monocotyledonous and dicotyledonous weeds and crop plants are placed in sandy loam in plastic or organic planting pots, covered with soil and cultivated in a greenhouse under controlled growth conditions. 2 to 3 weeks after sowing, the trial plants are treated at the one-leaf stage. The compounds of the invention, formulated in the form of wettable powders (WP) or as emulsion concentrates (EC), are then sprayed onto the green parts of the plants as aqueous suspension or emulsion with addition of 0.5% additive at a water application rate equivalent to 600 l/ha. After about 3 weeks of keeping the trial plants in the greenhouse under optimum growth conditions, the effect of the preparations is rated visually in comparison to untreated controls. For example, 100% activity=the plants have died, 0% activity=like control plants.
(§2) The observed effects on selected crop plants are reported here in comparison to the untreated controls (values in %). The appendices “a”, “b” and “c” give differentiation by dosage used with otherwise the same useful plants tested.
(§3) As shown by results from Tables B1 to B19, inventive compounds of the general formula (I) in the case of post-emergence treatment have good herbicidal efficacy against harmful plants, for example Abutilon theophrasti (ABUTH), Alopecurus myosuroides (ALOMY), Amaranthus retroflexus (AMARE), Avena fatua (AVEFA), Digitaria sanguinalis (DIGSA), Echinochloa crus-galli (ECHCG), Bassia scoparia (KCHSC), Lolium rigidum (LOLRI), Matricaria inodora (MATIN), Pharbitis purpurea (PHBPU), Polygonum convolvulus (POLCO), Setaria viridis (SETVI), Veronica persica (VERPE) and Viola tricolor (VIOTR) at an application rate of 320 g of active substance or less per hectare, and good crop plant compatibility in the case of organisms such as Oryza sativa (ORYSA), Zea mays (ZEAMX), Brassica napus (BRSNW), Glycine max (GLXMA) and Triticum aestivum (TRZAS) at an application rate of 320 g or less per hectare.

Structure (SMILES) | Post-emergence effect against TRZAS (crop plant compatibility) [%]
COC(=O)CCOC(=O)C(Oc1nn(-c2ncccc2F)c(-c2cncc(F)c2)c1C1CC1)SC (centres unmarked) [Example I-63] | 20

test system: Zea mays (ZEAMX); assay: as above; format: in vivo; settings: 20 g/ha, in comparison to untreated controls
Procedure: as §1, §2, §3

Structure (SMILES) | Post-emergence effect against ZEAMX (crop plant compatibility) [%]
COC(=O)CCOC(=O)C(Oc1nn(-c2ncccc2F)c(-c2cncc(F)c2)c1C1CC1)SC (centres unmarked) [Example I-63] | 0

test system: Setaria viridis (SETVI); assay: Post-emergence herbicidal action, greenhouse pot trial; format: in vivo; settings: 320 g/ha, visual rating after about 3 weeks
Method in brief: (§4)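 Visual % activity versus untreated controls (100% = plants died, 0% = like control), scored about 3 weeks post-spray. Plants grown in sandy loam pots under greenhouse conditions were treated at the one-leaf stage with WP or EC formulations at 320 g/ha or lower.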

Structure (SMILES) | Post-emergence effect at 320 g/ha against SETVI in % [%]
COC(=O)CCOC(=O)C(Oc1nn(-c2ncccc2F)c(-c2cncc(F)c2)c1C1CC1)SC (centres unmarked) [Example I-63] | 90

test system: Avena fatua (AVEFA); assay: as above; format: in vivo; settings: 320 g/ha, visual rating after about 3 weeks
Method in brief: as §4

Structure (SMILES) | Post-emergence effect at 320 g/ha against AVEFA in % [%]
COC(=O)CCOC(=O)C(Oc1nn(-c2ncccc2F)c(-c2cncc(F)c2)c1C1CC1)SC (centres unmarked) [Example I-63] | 100

test system: Bassia scoparia (KCHSC); assay: as above; format: in vivo; settings: 320 g/ha
Method in brief: as §4

Structure (SMILES) | Post-emergence effect against KCHSC [%]
COC(=O)CCOC(=O)C(Oc1nn(-c2ncccc2F)c(-c2cncc(F)c2)c1C1CC1)SC (centres unmarked) [Example I-63] | 90

test system: Pharbitis purpurea (PHBPU); assay: as above; format: in vivo; settings: 80 g/ha, visual rating after about 3 weeks
Method in brief: as §4

Structure (SMILES) | Post-emergence effect at 80 g/ha against PHBPU in % [%]
COC(=O)CCOC(=O)C(Oc1nn(-c2ncccc2F)c(-c2cncc(F)c2)c1C1CC1)SC (centres unmarked) [Example I-63] | 90

same assay, conditions: 320 g/ha, visual rating after about 3 weeks

Structure (SMILES) | Post-emergence effect at 320 g/ha against PHBPU in % [%]
COC(=O)CCOC(=O)C(Oc1nn(-c2ncccc2F)c(-c2cncc(F)c2)c1C1CC1)SC (centres unmarked) [Example I-63] | 90

test system: Veronica persica (VERPE); assay: as above; format: in vivo; settings: 80 g/ha, visual rating after about 3 weeks
Method in brief: as §4

Structure (SMILES) | Post-emergence effect at 80 g/ha against VERPE in % [%]
COC(=O)CCOC(=O)C(Oc1nn(-c2ncccc2F)c(-c2cncc(F)c2)c1C1CC1)SC (centres unmarked) [Example I-63] | 80

same assay, conditions: 320 g/ha, visual rating after about 3 weeks

Structure (SMILES) | Post-emergence effect at 320 g/ha against VERPE in % [%]
COC(=O)CCOC(=O)C(Oc1nn(-c2ncccc2F)c(-c2cncc(F)c2)c1C1CC1)SC (centres unmarked) [Example I-63] | 90

test system: Abutilon theophrasti (ABUTH); assay: as above; format: in vivo; settings: 20 g/ha, visual rating after about 3 weeks
Method in brief: as §4

Structure (SMILES) | Post-emergence action at 20 g/ha against ABUTH in % [%]
COC(=O)CCOC(=O)C(Oc1nn(-c2ncccc2F)c(-c2cncc(F)c2)c1C1CC1)SC (centres unmarked) [Example I-63] | 80

same assay, conditions: 80 g/ha, visual rating after about 3 weeks

Structure (SMILES) | Post-emergence effect at 80 g/ha against ABUTH in % [%]
COC(=O)CCOC(=O)C(Oc1nn(-c2ncccc2F)c(-c2cncc(F)c2)c1C1CC1)SC (centres unmarked) [Example I-63] | 80

same assay, conditions: 320 g/ha, visual rating after about 3 weeks

Structure (SMILES) | Post-emergence effect at 320 g/ha against ABUTH in % [%]
COC(=O)CCOC(=O)C(Oc1nn(-c2ncccc2F)c(-c2cncc(F)c2)c1C1CC1)SC (centres unmarked) [Example I-63] | 90

test system: Polygonum convolvulus (POLCO); assay: as above; format: in vivo; settings: 320 g/ha, visual rating after about 3 weeks
Method in brief: as §4

Structure (SMILES) | Post-emergence effect at 320 g/ha against POLCO in % [%]
COC(=O)CCOC(=O)C(Oc1nn(-c2ncccc2F)c(-c2cncc(F)c2)c1C1CC1)SC (centres unmarked) [Example I-63] | 80

test system: Viola tricolor (VIOTR); assay: as above; format: in vivo; settings: 20 g/ha
Method in brief: as §4

Structure (SMILES) | Post-emergence effect against VIOTR [%]
COC(=O)CCOC(=O)C(Oc1nn(-c2ncccc2F)c(-c2cncc(F)c2)c1C1CC1)SC (centres unmarked) [Example I-63] | 90

same assay, conditions: 80 g/ha

Structure (SMILES) | Post-emergence effect against VIOTR [%]
COC(=O)CCOC(=O)C(Oc1nn(-c2ncccc2F)c(-c2cncc(F)c2)c1C1CC1)SC (centres unmarked) [Example I-63] | 90

same assay, conditions: 320 g/ha

Structure (SMILES) | Post-emergence effect against VIOTR [%]
COC(=O)CCOC(=O)C(Oc1nn(-c2ncccc2F)c(-c2cncc(F)c2)c1C1CC1)SC (centres unmarked) [Example I-63] | 90

test system: Matricaria inodora (MATIN); assay: as above; format: in vivo; settings: 80 g/ha, visual rating after about 3 weeks
Method in brief: as §4

Structure (SMILES) | Post-emergence effect at 80 g/ha against MATIN in % [%]
COC(=O)CCOC(=O)C(Oc1nn(-c2ncccc2F)c(-c2cncc(F)c2)c1C1CC1)SC (centres unmarked) [Example I-63] | 80

same assay, conditions: 320 g/ha, visual rating after about 3 weeks

Structure (SMILES) | Post-emergence effect at 320 g/ha against MATIN in % [%]
COC(=O)CCOC(=O)C(Oc1nn(-c2ncccc2F)c(-c2cncc(F)c2)c1C1CC1)SC (centres unmarked) [Example I-63] | 90

test system: Lolium rigidum (LOLRI); assay: as above; format: in vivo; settings: 320 g/ha, visual rating after about 3 weeks
Method in brief: as §4

Structure (SMILES) | Post-emergence effect at 320 g/ha against LOLRI in % [%]
COC(=O)CCOC(=O)C(Oc1nn(-c2ncccc2F)c(-c2cncc(F)c2)c1C1CC1)SC (centres unmarked) [Example I-63] | 90

test system: Echinochloa crus-galli (ECHCG); assay: as above; format: in vivo; settings: 320 g/ha, visual rating after about 3 weeks
Method in brief: as §4

Structure (SMILES) | Post-emergence effect at 320 g/ha against ECHCG in % [%]
COC(=O)CCOC(=O)C(Oc1nn(-c2ncccc2F)c(-c2cncc(F)c2)c1C1CC1)SC (centres unmarked) [Example I-63] | 90

test system: Amaranthus retroflexus (AMARE); assay: as above; format: in vivo; settings: 20 g/ha, visual rating after about 3 weeks
Method in brief: as §4

Structure (SMILES) | Post-emergence effect at 20 g/ha against AMARE in % [%]
COC(=O)CCOC(=O)C(Oc1nn(-c2ncccc2F)c(-c2cncc(F)c2)c1C1CC1)SC (centres unmarked) [Example I-63] | 80

same assay, conditions: 80 g/ha, visual rating after about 3 weeks

Structure (SMILES) | Post-emergence effect at 80 g/ha against AMARE in % [%]
COC(=O)CCOC(=O)C(Oc1nn(-c2ncccc2F)c(-c2cncc(F)c2)c1C1CC1)SC (centres unmarked) [Example I-63] | 80

same assay, conditions: 320 g/ha, visual rating after about 3 weeks

Structure (SMILES) | Post-emergence effect at 320 g/ha against AMARE in % [%]
COC(=O)CCOC(=O)C(Oc1nn(-c2ncccc2F)c(-c2cncc(F)c2)c1C1CC1)SC (centres unmarked) [Example I-63] | 90

From patent US20250026724A1, “(1,4,5-TRISUBSTITUTED 1H-PYRAZOL-3-YL)OXY-2-ALKYLTHIOALKYL ACIDS AND -ALKYL ACID DERIVATIVES, SALTS THEREOF AND USE THEREOF AS ACTIVE HERBICIDAL INGREDIENTS” (BAYER AKTIENGESELLSCHAFT, priority 2021, published 2025)
